Where two headings read alike, the source gives them in different places.
Legend:
[1] = system: systemic arterial pressure; test: Systemic arterial pressure; assay type: in vivo, CIA mice; conditions: single IV injection, regardless of dose
[2] = system: collagen induced arthritis (CIA); test: Efficacy against collagen induced arthritis, subcutaneous treatment; assay type: in vivo, DBA/1J mice; conditions: 5.0 nmol/animal SC on day 22 and 34; between days 34 and 40
[3] = cited from earlier work
[4] = system: collagen induced arthritis (CIA); assay type: in vivo, DBA/1J mice; conditions: single IV dose on day 22, observed to day 58, 6 mice/group

Vasoactive intestinal peptide [free VIP]
time to full recovery of SAP to the norm [1]: approximately one hour | duration of disease suppression after cessation of treatment [2]: about a week | in vivo half-life [3]: few minutes | paw thickness and clinical arthritis score ([4]; 0.5 nmol/animal): did not show any therapeutic efficacy | paw thickness and clinical arthritis score ([4]; 1.0 nmol/animal): did not show any therapeutic efficacy
